Columns and labels:
[1] = test system: HL-60 cells; experiment: Cell cycle analysis by flow cytometry; assay type: cell-based, human; conditions: at IC50 concentration
Method: Flow cytometry measures cell growth in different cell cycle phases (G0–G1, S, G2/M and pre-G1).[33,77] This study aimed to find out how the target compounds affect the growth of cancer cells by examining at how they change the cell cycle and cause apoptosis in HL-60 cells.
The cell cycle analysis was conducted similarly to our prior study, using the leukemia HL-60 cell line. The cells were stained with the DNA fluorochrome PI and analyzed using a FACSCalibur flow cytometer.[33,77]

[2] = test system: Bax in MDA-MB-231 cells; experiment: Apoptotic markers assay, Bax; assay type: cell-based, human; conditions: at IC50 concentration, vs untreated control
Method: (§1) The levels of Bax (apoptosis promoter), Bcl-2 (apoptosis inhibitor), and apoptosis coordination enzymes (caspase-3 and caspase-9) were measured.[78–80]
(§2) Apoptotic markers experiment was performed according to reported procedure using MDA-MB-231 cancer cell line.[78–80]

[3] = test system: EKVX; experiment: NCI single-dose GI%, NSC lung; assay type: cell-based, human; conditions: 10.0 μM in one dose
[4] = biological target: T1, COX-2 (Ovis aries, UniProt P79208); experiment: Colorimetric COX-2 inhibition assay
T1 sequence (P79208 17-603): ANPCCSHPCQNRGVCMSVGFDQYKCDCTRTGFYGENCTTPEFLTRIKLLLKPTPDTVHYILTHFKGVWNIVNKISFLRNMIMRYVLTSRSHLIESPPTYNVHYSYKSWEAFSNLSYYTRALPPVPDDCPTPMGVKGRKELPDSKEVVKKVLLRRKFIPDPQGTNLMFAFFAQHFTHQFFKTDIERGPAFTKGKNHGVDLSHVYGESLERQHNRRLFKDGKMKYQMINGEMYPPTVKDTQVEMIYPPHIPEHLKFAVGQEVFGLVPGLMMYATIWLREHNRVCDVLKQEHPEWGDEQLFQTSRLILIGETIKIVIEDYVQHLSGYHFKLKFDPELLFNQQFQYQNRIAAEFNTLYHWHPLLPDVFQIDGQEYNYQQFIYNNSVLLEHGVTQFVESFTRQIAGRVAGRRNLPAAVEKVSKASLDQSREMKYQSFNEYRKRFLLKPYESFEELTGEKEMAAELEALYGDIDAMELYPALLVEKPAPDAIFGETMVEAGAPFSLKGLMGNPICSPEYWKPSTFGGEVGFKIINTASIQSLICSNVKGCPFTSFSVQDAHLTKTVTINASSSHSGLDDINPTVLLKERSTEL

[5] = biological target: HER2 (Homo sapiens, UniProt P04626); experiment: HER2 tyrosine kinase inhibition assay
[6] = test system: MDA-MB-231; experiment: cells; conditions: Homo sapiens, MDA-MB-231, 48 h, read-out: In vitro cytotoxicity IC50
Method: (§3) The antitumor experiment was conducted on 59 human tumor cell lines derived from nine different human tissues, following the procedure of the Drug Evaluation Branch at the NCI, Bethesda, MD.[33]

[7] = test system: leukemia HL-60; experiment: cells; conditions: Homo sapiens, HL-60, 48 h, read-out: In vitro cytotoxicity IC50
Method: as §3

[8] = test system: BT-549; experiment: NCI single-dose GI%, breast; assay type: cell-based, human; conditions: BT-549, breast; 10.0 μM in one dose
[9] = test system: caspase-3 in MDA-MB-231 cells; experiment: Apoptotic markers assay, caspase-3; assay type: cell-based, human; conditions: at IC50 concentration, vs untreated control
Method: as §1, §2

[10] = test system: 59 cancer cell lines; experiment: NCI 59 cancer cell line panel, single dose; assay type: cell-based, human; conditions: 10 μM single dose; for MG% (mean growth percent): 59 cell lines; for Mean GI% Breast cancer: breast cancer subpanel; for Mean GI% Leukemia: leukemia subpanel
[11] = test system: caspase-9 in MDA-MB-231 cells; experiment: Apoptotic markers assay, caspase-9; assay type: cell-based, human; conditions: at IC50 concentration, vs untreated control
Method: as §1, §2

[12] = test system: COLO 205; experiment: NCI single-dose GI%, colon; assay type: cell-based, human; conditions: COLO 205, colon; 10.0 μM in one dose
[13] = test system: WI-38 normal fibroblast cells; experiment: in vitro; conditions: ratio of WI38 IC50 to cancer cell IC50 values
Method: (§4) A normal fibroblast-like fetal lung cell line (WI-38) was used to further investigate the therapeutic safety of the newly synthesized hybrids and evaluate their selective cytotoxicity toward normal and tumor cells.[33,77]
as §3

[14] = in vitro; conditions: human
Method: as §4, §3

[15] = test system: MOLT-4; experiment: NCI single-dose GI%, leukemia; assay type: cell-based, human; conditions: MOLT-4, leukemia; 10.0 μM in one dose
[16] = test system: UACC-257; experiment: NCI single-dose GI%, melanoma; assay type: cell-based, human; conditions: UACC-257, melanoma; 10.0 μM in one dose
[17] = test system: A549/ATCC; experiment: NCI single-dose GI%, NSC lung; assay type: cell-based, human; conditions: 10.0 μM in one dose
[18] = test system: U251; experiment: NCI single-dose GI%, CNS; assay type: cell-based, human; conditions: 10.0 μM in one dose
[19] = test system: HL-60(TB); experiment: NCI single-dose GI%, leukemia; assay type: cell-based, human; conditions: 10.0 μM in one dose
[20] = test system: MCF7; experiment: NCI single-dose GI%, breast; assay type: cell-based, human; conditions: 10.0 μM in one dose
[21] = biological target: VEGFR2 (Homo sapiens, UniProt P35968); experiment: VEGFR2 tyrosine kinase inhibition assay
[22] = test system: K-562; experiment: NCI single-dose GI%, leukemia; assay type: cell-based, human; conditions: K-562, leukemia; 10.0 μM in one dose
[23] = test system: HL-60 cells; experiment: Annexin V-FITC/PI apoptosis assay; assay type: cell-based, human; conditions: 24 h, at IC50 concentration
Excerpt: Most anticancer agents kill cancer cells via an apoptosis induction mechanism.[33,77]
As per our earlier study, we induced apoptosis using the leukemia HL-60 cell line and a widely recognized Annexin 5-FITC/PI detection kit. The cell line samples were examined utilizing a FACSCalibur flow cytometer.[33,77]

[24] = test system: NCI-H522; experiment: NCI single-dose GI%, NSC lung; assay type: cell-based, human; conditions: 10.0 μM in one dose
[25] = test system: PC-3; experiment: NCI single-dose GI%, prostate; assay type: cell-based, human; conditions: PC-3, prostate; 10.0 μM in one dose
[26] = test system: T-47D; experiment: NCI single-dose GI%, breast; assay type: cell-based, human; conditions: 10.0 μM in one dose
[27] = test system: HOP-62; experiment: NCI single-dose GI%, NSC lung; assay type: cell-based, human; conditions: HOP-62, NSC lung; 10.0 μM in one dose

Sequence of HER2 (P04626 23-1255): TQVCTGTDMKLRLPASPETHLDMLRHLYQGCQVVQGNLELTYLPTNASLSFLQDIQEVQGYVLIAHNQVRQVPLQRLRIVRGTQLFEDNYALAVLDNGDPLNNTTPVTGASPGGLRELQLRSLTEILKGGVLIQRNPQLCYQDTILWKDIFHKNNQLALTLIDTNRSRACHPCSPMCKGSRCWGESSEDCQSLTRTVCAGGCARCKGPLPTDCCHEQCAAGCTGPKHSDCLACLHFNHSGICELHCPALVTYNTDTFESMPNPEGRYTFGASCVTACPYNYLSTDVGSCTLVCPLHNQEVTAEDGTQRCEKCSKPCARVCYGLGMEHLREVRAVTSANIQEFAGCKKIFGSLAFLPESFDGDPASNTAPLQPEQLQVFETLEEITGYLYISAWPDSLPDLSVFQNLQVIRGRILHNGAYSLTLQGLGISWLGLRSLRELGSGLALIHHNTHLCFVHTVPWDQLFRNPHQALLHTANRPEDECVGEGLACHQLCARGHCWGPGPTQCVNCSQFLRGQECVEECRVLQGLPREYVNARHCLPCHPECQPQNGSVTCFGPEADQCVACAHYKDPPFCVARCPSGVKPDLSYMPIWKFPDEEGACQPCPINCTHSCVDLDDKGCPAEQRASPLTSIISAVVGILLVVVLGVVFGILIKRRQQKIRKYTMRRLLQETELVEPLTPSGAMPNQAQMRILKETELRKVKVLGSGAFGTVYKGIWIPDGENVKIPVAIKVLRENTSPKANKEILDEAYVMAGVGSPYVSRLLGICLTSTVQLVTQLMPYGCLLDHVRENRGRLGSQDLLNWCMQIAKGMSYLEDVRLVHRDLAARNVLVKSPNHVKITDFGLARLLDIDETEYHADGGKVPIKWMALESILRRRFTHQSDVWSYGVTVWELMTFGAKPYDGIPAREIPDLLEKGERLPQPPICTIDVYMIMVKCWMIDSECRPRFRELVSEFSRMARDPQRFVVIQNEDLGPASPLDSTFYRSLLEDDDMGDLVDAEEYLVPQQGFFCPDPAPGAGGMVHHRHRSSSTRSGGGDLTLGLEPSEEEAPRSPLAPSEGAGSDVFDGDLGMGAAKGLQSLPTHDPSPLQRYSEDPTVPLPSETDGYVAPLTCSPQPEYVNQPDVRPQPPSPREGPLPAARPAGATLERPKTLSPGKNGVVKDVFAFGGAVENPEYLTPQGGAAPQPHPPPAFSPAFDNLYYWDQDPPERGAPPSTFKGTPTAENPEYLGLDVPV
Sequence of VEGFR2 (P35968 20-1356): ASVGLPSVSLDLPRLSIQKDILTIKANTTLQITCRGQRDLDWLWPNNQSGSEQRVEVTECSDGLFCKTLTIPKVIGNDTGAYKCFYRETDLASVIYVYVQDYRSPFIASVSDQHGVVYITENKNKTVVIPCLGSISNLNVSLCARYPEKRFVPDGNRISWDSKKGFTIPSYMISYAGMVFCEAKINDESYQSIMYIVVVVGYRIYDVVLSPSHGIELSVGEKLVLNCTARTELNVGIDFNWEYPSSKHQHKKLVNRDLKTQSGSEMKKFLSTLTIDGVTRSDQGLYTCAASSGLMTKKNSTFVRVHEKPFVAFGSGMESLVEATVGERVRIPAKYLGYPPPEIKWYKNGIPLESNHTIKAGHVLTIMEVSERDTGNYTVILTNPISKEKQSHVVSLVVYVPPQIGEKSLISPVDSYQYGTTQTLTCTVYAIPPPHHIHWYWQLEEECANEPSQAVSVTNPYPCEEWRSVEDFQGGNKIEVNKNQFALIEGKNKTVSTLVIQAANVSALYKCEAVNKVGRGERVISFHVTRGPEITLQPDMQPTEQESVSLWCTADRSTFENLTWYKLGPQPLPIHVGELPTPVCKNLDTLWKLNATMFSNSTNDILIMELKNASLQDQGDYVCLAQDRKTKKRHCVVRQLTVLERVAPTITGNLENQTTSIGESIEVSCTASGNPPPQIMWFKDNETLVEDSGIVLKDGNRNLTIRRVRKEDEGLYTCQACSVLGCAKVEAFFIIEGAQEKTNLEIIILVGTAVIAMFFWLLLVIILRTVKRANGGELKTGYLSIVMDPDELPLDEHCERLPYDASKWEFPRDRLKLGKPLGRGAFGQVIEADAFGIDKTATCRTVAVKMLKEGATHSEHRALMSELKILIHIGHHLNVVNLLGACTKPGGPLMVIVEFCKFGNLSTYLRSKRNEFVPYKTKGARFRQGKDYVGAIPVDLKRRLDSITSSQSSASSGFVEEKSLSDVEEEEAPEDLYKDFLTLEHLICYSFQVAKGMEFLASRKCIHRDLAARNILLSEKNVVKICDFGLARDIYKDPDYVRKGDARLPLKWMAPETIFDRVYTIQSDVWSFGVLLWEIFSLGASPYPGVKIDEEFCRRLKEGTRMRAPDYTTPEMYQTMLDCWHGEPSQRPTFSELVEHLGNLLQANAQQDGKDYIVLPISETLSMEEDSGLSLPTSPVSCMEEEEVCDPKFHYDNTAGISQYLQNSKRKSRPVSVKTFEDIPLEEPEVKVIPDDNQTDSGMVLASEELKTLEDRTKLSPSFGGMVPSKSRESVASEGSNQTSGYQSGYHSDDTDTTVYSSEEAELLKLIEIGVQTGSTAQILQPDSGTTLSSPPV

Cc1ccc(C2=NN(C(=O)c3ccc(S(C)(=O)=O)cc3)C(c3ccc(C)cc3)C2)cc1 (stereo not drawn) [Compound 18g, (3,5-Bis(4-tolyl)-4,5-dihydro-1H-pyrazol-1-yl)(4-(methylsulfonyl)phenyl)methanone]
% G0–G1 [1]: 43.52%
% G2–M [1]: 29.09%
% Pre-G1 [1]: 13.69%
% S [1]: 27.39%
phase of cell cycle arrest [1]: S/G2 phase
Bax gene expression (fold change) [2]: 3.054 fold change
GI% [3]: 25%
IC50 [4]: 94 ± 4.41 µM
IC50 [5]: 496 ± 16 nM
IC50 [6]: 4.07 ± 0.18 µM
IC50 [7]: 10.4 ± 0.68 µM
GI% [8]: 27%
Casp3 gene expression (fold change) [9]: 3.945 fold change
PCE (positive cytotoxic effect: ratio of cell lines with growth inhibition >10% to total cell lines) [10]: 48/59
MG% (mean growth percent) [10]: 72.98%
Mean GI% Breast cancer [10]: 31%
Mean GI% Leukemia [10]: 63%
Casp9 gene expression (fold change) [11]: 4.386 fold change
GI% [12]: 33%
Mean tumor selectivity index (WI38/HL60, MCF7, and MDA-MB-231) [13]: 3.73
IC50 at 48 h [14]: 26.2 ± 1.16 µM
GI% [15]: 56%
GI% [16]: 40%
GI% [17]: 43%
GI% [18]: 23%
GI% [19]: 66%
GI% [20]: 52%
IC50 [21]: 168 ± 3 nM
GI% [22]: 80%
Apoptosis Early [23]: 4.47%
Apoptosis Late [23]: 7.84%
Apoptosis Total (percentage of annexin V-FITC positive cells) [23]: 13.69%
Necrosis [23]: 1.38%
GI% [24]: 73%
GI% [25]: 33%
GI% [26]: 32%
GI% [27]: 26%

CS(=O)(=O)c1ccc(C(=O)N2N=C(c3ccccc3)CC2c2ccc(F)cc2)cc1 (stereo not drawn) [Compound 18c, (5-(4-Fluorophenyl)-3-phenyl-4,5-dihydro-1H-pyrazol-1-yl)(4-(methylsulfonyl)phenyl)methanone]
% G0–G1 [1]: 51.19%
% G2–M [1]: 17.53%
% Pre-G1 [1]: 8.07%
% S [1]: 31.28%
phase of cell cycle arrest [1]: S/G2 phase
Bax gene expression (fold change) [2]: 4.413 fold change
GI% [3]: 15%
IC50 [4]: 127 ± 8.23 µM
IC50 [5]: 1430 ± 47 nM
IC50 [6]: 12.5 ± 0.56 µM
IC50 [7]: 8.43 ± 1.7 µM
GI% [8]: 14%
Casp3 gene expression (fold change) [9]: 7.453 fold change
PCE (positive cytotoxic effect: ratio of cell lines with growth inhibition >10% to total cell lines) [10]: 21/59
MG% (mean growth percent) [10]: 90.58%
Mean GI% Breast cancer [10]: 16%
Mean GI% Leukemia [10]: 35%
Casp9 gene expression (fold change) [11]: 5.158 fold change
GI% [12]: 22%
Mean tumor selectivity index (WI38/HL60, MCF7, and MDA-MB-231) [13]: 3.02
IC50 at 48 h [14]: 34.8 ± 1.54 µM
GI% [15]: 39%
GI% [16]: 32%
GI% [17]: 32%
GI% [18]: 12%
GI% [19]: 46%
GI% [20]: 11%
IC50 [21]: 218 ± 5 nM
GI% [22]: 33%
Apoptosis Early [23]: 2.91%
Apoptosis Late [23]: 4.4%
Apoptosis Total (percentage of annexin V-FITC positive cells) [23]: 8.06%
Necrosis [23]: 0.76%
GI% [24]: 48%
GI% [25]: 17%
GI% [26]: 24%
GI% [27]: 26%

CS(=O)(=O)c1ccc(C(=O)N2N=C(c3ccccc3)CC2c2ccccc2O)cc1 (stereo not drawn) [Compound 18h, (5-(2-Hydroxyphenyl)-3-phenyl-4,5-dihydro-1H-pyrazol-1-yl)(4-(methylsulfonyl)phenyl)methanone]
% G0–G1 [1]: 53.27%
% G2–M [1]: 17.07%
% Pre-G1 [1]: 10.77%
% S [1]: 29.66%
phase of cell cycle arrest [1]: S/G2 phase
Bax gene expression (fold change) [2]: 2.154 fold change
GI% [3]: 41%
IC50 [4]: 19.3 ± 0.72 µM
IC50 [5]: 253 ± 8 nM
IC50 [6]: 7.18 ± 0.32 µM
IC50 [7]: 8.99 ± 0.4 µM
GI% [8]: 19%
Casp3 gene expression (fold change) [9]: 5.559 fold change
PCE (positive cytotoxic effect: ratio of cell lines with growth inhibition >10% to total cell lines) [10]: 51/59
MG% (mean growth percent) [10]: 72.20%
Mean GI% Breast cancer [10]: 24%
Mean GI% Leukemia [10]: 46%
Casp9 gene expression (fold change) [11]: 2.799 fold change
GI% [12]: 20%
Mean tumor selectivity index (WI38/HL60, MCF7, and MDA-MB-231) [13]: 4.51
IC50 at 48 h [14]: 40.9 ± 1.81 µM
GI% [15]: 62%
GI% [16]: 39%
GI% [17]: 45%
GI% [18]: 48%
GI% [19]: 73%
GI% [20]: 22%
IC50 [21]: 135 ± 9 nM
GI% [22]: 55%
Apoptosis Early [23]: 6.18%
Apoptosis Late [23]: 3.34%
Apoptosis Total (percentage of annexin V-FITC positive cells) [23]: 10.77%
Necrosis [23]: 1.25%
GI% [24]: 55%
GI% [25]: 21%
GI% [26]: 30%
GI% [27]: 47%
